From PubChem BioAssay AID696 (Sanford-Burnham Center for Chemical Genomics, 2007)

Target: Alkaline phosphatase, placental type (Homo sapiens) (UniProt P05187)
Assay: PLAP enzyme activators, biochemical, luminescence, HTS (AID 696)
Conditions: purified PLAP enzyme, luminescent substrate read-out

Chain of Alkaline phosphatase, placental type (Homo sapiens) (P05187 whole entry, looked up): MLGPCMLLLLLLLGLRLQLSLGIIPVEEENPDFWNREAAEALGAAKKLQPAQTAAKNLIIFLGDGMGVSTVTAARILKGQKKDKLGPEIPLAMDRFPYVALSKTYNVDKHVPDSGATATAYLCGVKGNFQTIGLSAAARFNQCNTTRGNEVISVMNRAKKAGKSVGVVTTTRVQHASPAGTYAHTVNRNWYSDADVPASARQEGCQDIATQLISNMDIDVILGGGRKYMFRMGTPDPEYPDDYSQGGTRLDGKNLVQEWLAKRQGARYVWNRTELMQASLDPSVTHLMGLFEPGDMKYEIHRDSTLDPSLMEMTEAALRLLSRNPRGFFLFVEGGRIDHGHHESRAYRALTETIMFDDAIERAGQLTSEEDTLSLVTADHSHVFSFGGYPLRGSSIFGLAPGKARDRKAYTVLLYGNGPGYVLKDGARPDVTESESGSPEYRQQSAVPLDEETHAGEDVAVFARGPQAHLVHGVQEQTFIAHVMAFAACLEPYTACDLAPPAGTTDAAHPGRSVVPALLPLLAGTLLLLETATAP

Row | Structure (SMILES) | EC50 [µM]
1 | COc1ccc(-c2cc(NCc3ccccn3)n3ncnc3n2)cc1 | 65.9
2 | COc1ccc(-c2nnc(-c3ccc(Br)o3)o2)cc1OC | 25.9
3 | CCOC(=O)c1c(C)[nH]c(C(=O)CSc2nnc(CC(C)c3ccccc3)o2)c1C (centres undefined) | 78.5
4 | N#CC(c1ccc(F)cc1)c1ccc(C(=O)c2ccc(F)cc2)cc1 (centres undefined) | 23.1
5 | c1ccc(Nc2cccc(Nc3ccccc3)n2)cc1 | 37
6 | O=C(Cn1c(=O)n(-c2ccccc2)c(=O)c2sccc21)N1CCCC1 | 2.65
7 | c1ccc(CSCCc2ccncc2)cc1 | 66.9
8 | Cc1ccc(C2CC(c3ccc(Cl)cc3)=NNC2=O)cc1 (centres undefined) | 0.203
9 | O=C(Oc1ccc2c(=O)c(Oc3ccc4ccccc4c3)coc2c1)c1cncc(Br)c1 | 74
10 | CCn1c(SCC(=O)c2ccc(O)c(O)c2)nnc1-c1ccccc1 | 79.4
11 | O=C(Cn1c(=O)oc2cc(S(=O)(=O)N3CCCC3)ccc21)NCc1ccc(F)cc1 | 0.457
12 | Cc1ccc(C)c(NC(=S)NC(NC(=O)Cc2cccc3ccccc23)C(Cl)(Cl)Cl)c1 (centres undefined) | 63.1
13 | Clc1ccc(-c2cc(CSc3cccc(Cl)c3)on2)cc1 | 69.4
14 | CCCCOC(=O)C(C)Nc1n[nH]c(=S)[nH]c1=O (centres undefined) | 21.4
15 | O=C1Nc2ccc(Br)cc2/C1=N/N=C/C1=C(N2CCOCC2)C(=C\c2ccccc2)/CC1 | 38.4
16 | O=P(/C(=N/O)N1CCCCC1)(N1CCOCC1)N1CCOCC1 | 54.5
17 | CCCCN1CCc2c1nc1ccc(Br)cc1c2N | 77.2
18 | Cc1cccc(N2C(=O)NC(=O)/C(=C\c3cnn(-c4ccccc4)c3)C2=O)c1 | 1.09
19 | CC(C)n1c(-c2ccc(N(C)C)cc2)nc2ccccc21 | 8.52
20 | CCCn1c(C(O)c2ccc3c(c2)OCO3)nc2ccccc21 (centres undefined) | 17.7

Row | Structure (SMILES) | EC50 [µM]
21 | COc1cccc(NC(=O)c2nnn(CCc3ccccc3)c2N)c1 | 82.8
22 | O=P(CCCCCCCCCP(=O)(c1ccccc1)c1ccccc1)(c1ccccc1)c1ccccc1 | 99.6
23 | Cc1ccc(/C=N/NC(=O)c2c[nH]c3ccccc23)o1 | 59.2
24 | CC(C)N=c1scc(-c2ccco2)n1/N=C/c1ccc(O)c(O)c1 | 48.2
25 | Cc1cc(Nc2ccc(Cl)cc2)n(-c2cccc(Cl)c2)n1 | 51
26 | CC1Cc2ccccc2N1C(=O)CSc1nnc(Cc2ccccc2)n1CCc1ccccc1 (centres undefined) | 86.8
27 | CCOc1ccc(CNC(=S)N/N=C\c2ccc([N+](=O)[O-])cc2)cc1 | 10.9
28 | CC1CC(C)CN(CC(C)(C)NS(=O)(=O)c2ccc(Cl)cc2)C1 (centres undefined) | 24.8
29 | O=C(C[n+]1cc2ccccc2c2ccccc21)c1ccccc1 | 94.1
30 | O=C(Nc1ccccc1)NC1(C(=O)N2CCN(C(=O)c3ccco3)CC2)CCCCC1 | 35.6
31 | CCC(=O)Nc1ccccc1C(=O)OCC(=O)c1ccccc1 | 39.2
32 | Cc1ccc(-n2c([O-])nc(-[n+]3ccccc3)c2C=O)cc1 | 9.08
33 | CCCn1c(CNc2ccc(Br)cc2)nc2ccccc21 | 48.5
34 | O=C(NC1(C(F)(F)F)Oc2ccc(Cl)cc2O1)N1CCC2(CC1)OCCO2 (centres undefined) | 61.9
35 | COC(=O)c1cn[nH]c1NC(=S)Nc1ccccc1C | 21.1
36 | COc1cccc(NCc2cc3c(C(C)(C)C)nn(-c4ccccc4)c3[nH]c2=O)c1 | 78
37 | N#CC(c1ccc(F)cc1)c1ccc(C(=O)c2ccccc2)cc1 (centres undefined) | 7.89
38 | O=[N+]([O-])c1ccc(Sc2nnnn2-c2ccccc2)c(Cl)c1 | 26.3
39 | Cc1nn(C)cc1/C=N\NC(=O)c1ccc2c(c1)c(C)c(C)n2Cc1ccccc1 | 72.1
